Data reported in PubChem BioAssay (NCI).
Several values for one entry are separate records, joined by “and”; a condition that tells them apart may be missing. Identical values can stand only once.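 48-hour exposure; five concentrations; linearly interpolated endpoints. GI50 marks 50% less growth. TGI marks complete inhibition of growth.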

Columns and labels:
Assay in all cases: inhibition of tumour cell growth, NCI panel, 48 h
[1] = tested on: SK-OV-3 ovarian
[2] = tested on: HCC-2998 colon
[3] = tested on: HT29 colon
[4] = tested on: MCF7 breast
[5] = tested on: UO-31 renal
[6] = tested on: UACC-257 melanoma
[7] = tested on: NCI/ADR-RES ovarian
[8] = tested on: SR leukemia
[9] = tested on: IGROV1 ovarian
[10] = tested on: OVCAR-4 ovarian

Row | Compound | GI50 [1] | TGI [1] | GI50 [2] | TGI [2] | GI50 [3] | TGI [3] | GI50 [4] | TGI [4] | GI50 [5] | TGI [5] | GI50 [6] | TGI [6] | GI50 [7] | TGI [7] | GI50 [8] | TGI [8] | GI50 [9] | TGI [9] | GI50 [10] | TGI [10]
1 | CC[C@]12C=CCN3CC[C@@]4(c5ccc(OC)cc5N(C)[C@H]4[C@@](O)(C(=O)OC)[C@@H]1OC(=O)CCC[P+](c1ccccc1)(c1ccccc1)c1ccccc1)[C@@H]32 | 0.894 µM and 0.439 µM | 3.8 µM and 2.46 µM | 0.449 µM and 0.425 µM | 2.67 µM and 1.64 µM | 0.334 µM and 0.403 µM | 4.91 µM and 2.78 µM | 0.254 µM and 0.354 µM | 5.21 µM and 1.79 µM | 8.57 µM and 13.4 µM | 26.2 µM and 26.9 µM | 0.364 µM and 0.275 µM | 1.82 µM and 0.94 µM | > 50 µM and 68.9 µM | > 100 µM | 0.379 µM and 0.438 µM | 7.07 µM and 1.97 µM | 0.235 µM and 0.394 µM | 0.923 µM and 1.61 µM | 0.317 µM and 0.322 µM | 6.1 µM and 2.32 µM
2 | C=C(C=O)C1CCC2(C(=O)O)CCC3(C)C(CCC4C5(C)CCC(O)C(C)(C)C5CCC43C)C12 (configuration not stated) | 7.37 µM | 19.6 µM | 1.93 µM | 3.36 µM | 2.65 µM | 7.39 µM | 2.76 µM | 14.3 µM | 0.627 µM | 2.16 µM | 2.05 µM | 5.48 µM | 1.79 µM | 5.57 µM | 2.23 µM | > 100 µM | 1.92 µM | 4.21 µM | 4.83 µM | 22.2 µM
3 | O=C1NC(=Nc2ccccc2)S/C1=C\c1ccc2ncccc2c1 | > 25 µM | > 25 µM | > 25 µM | > 25 µM | > 25 µM | > 25 µM | 0.953 µM | > 25 µM | > 25 µM | > 25 µM | > 25 µM | > 25 µM | > 6.88 µM | > 25 µM | 0.64 µM | > 25 µM | > 7.5 µM | > 25 µM | > 25 µM | > 25 µM
4 | COc1ccc2c(c1)CCC1C2CC[C@@]2(C)C1CC1=CC(COC(C)=O)C3C(=O)c4ccccc4C(=O)C3C12 (some centres not stated) | > 100 µM | > 100 µM | > 100 µM | > 100 µM | 94.9 µM | > 100 µM | > 100 µM | > 100 µM | 61.7 µM | > 100 µM | > 100 µM | > 100 µM | > 100 µM | > 100 µM | > 100 µM | > 100 µM | > 100 µM | > 100 µM | > 100 µM | > 100 µM
5 | CCN1CCN(c2ccc(Nc3cc(N(C)C(=O)Nc4c(Cl)c(OC)cc(OC)c4Cl)ncn3)cc2)CC1 | 8.02 µM | 20.8 µM | 8.04 µM | 32.5 µM | 1.55 µM | 3.69 µM | 2.41 µM | 11.8 µM | 1.35 µM | 10 µM | 1.77 µM | 3.7 µM | 3.7 µM | > 64.5 µM | 2.02 µM | 4.63 µM | 4.12 µM | 22.6 µM | 0.851 µM | 12.1 µM
6 | CNCCNc1c2c(c(NCCNC)c3c(CN(C)C)c[nH]c13)C(=O)c1ccccc1C2=O | 17.1 µM | 50.8 µM | 1.36 µM | 5.37 µM | 3.41 µM | 31.6 µM | 0.922 µM | 6.7 µM | 3 µM | 14.4 µM | 20.1 µM | 45.7 µM | 12.7 µM | 40.2 µM |  |  | 0.933 µM | 12.9 µM | 4.79 µM | 17.5 µM
7 | CC(=O)OC1Oc2ccccc2-c2oc(=O)c(-c3cc(=O)oc4cc(O)ccc34)cc21 (configuration not stated) | 26.7 µM | 87.6 µM |  |  | 26.4 µM | > 100 µM | 29.9 µM | > 100 µM | 22.2 µM | 58.9 µM | 23.9 µM | 79 µM | 18.1 µM | 44.6 µM | 2.65 µM | 6.5 µM | 20.8 µM | 83.6 µM | 25 µM | > 100 µM
8 | Cc1c2cccnc2c(C)c2c1c1cc(CO)ccc1n2C | 2.14 µM | 6.95 µM | 3.38 µM | 13.9 µM | 1.92 µM | 10.6 µM | 0.501 µM | 12.7 µM | 1.41 µM | 10.5 µM | 1.51 µM | 4.25 µM | 1.3 µM | 8.51 µM |  |  | 0.579 µM | 9.34 µM | 2.82 µM | 10.5 µM
9 | COc1ccc(N(C)c2ncnc3occ(C)c23)cc1 | < 0.01 µM | > 100 µM | < 0.01 µM | 0.0463 µM | < 0.01 µM | 16.3 µM | < 0.01 µM | > 100 µM | < 0.01 µM | > 100 µM | 29.6 µM | > 100 µM | < 0.01 µM | > 100 µM | < 0.01 µM | 0.236 µM | < 0.01 µM | > 100 µM | < 0.0311 µM | > 100 µM
10 | Cc1ccc(C(SCC(N)C(=O)O)(c2ccccc2)c2ccc(C)cc2)cc1 (configuration not stated) | 0.0811 µM | 19.6 µM | 0.236 µM | 2.77 µM | 0.334 µM | 3.38 µM | 0.0524 µM | 15.4 µM | 7.96 µM | > 55 µM | 2.13 µM | > 56.8 µM | 1.14 µM | 11.6 µM | 0.204 µM | 4.33 µM | 0.526 µM | 26.1 µM | 13.4 µM | 72.7 µM
11 | C/C1=C\CC[C@@]2(C)O[C@@H]2[C@H]2OC(=O)[C@@H](CN(C)C)[C@@H]2CC1 | 27.6 µM | 54 µM | 18 µM | 35.7 µM | 19.9 µM | 61.4 µM | 4.96 µM | > 100 µM | 2.31 µM | 5.95 µM | 12.8 µM | 28.4 µM | 14.7 µM | 59.9 µM |  |  | 17.9 µM | 34.2 µM | 16.6 µM | 40 µM
12 | COc1cc(Nc2cn[nH]c2-c2ccc(Cl)cc2)cc(OC)c1OC | 4.92 µM | 36.6 µM | 5.46 µM | 23.4 µM | 3.24 µM | 14.3 µM | 3.3 µM | 53.2 µM | 4.09 µM | 28.8 µM | 15.7 µM | > 83.6 µM | 4.42 µM | > 36.8 µM | 2.23 µM | 42.2 µM | 4.6 µM | 69.6 µM | 7.93 µM | > 100 µM
